Reference: patent publication US11655236B2, “Activity-based probe compounds, compositions, and methods of use” (THE BOARD OF TRUSTEES OF THE LELAND STANFORD JUNIOR …, priority 2013, dated 2023)

Tested on: cysteine cathepsins
Assay: Inhibition of probe labeling in living RAW cells by JPM-OEt pretreatment
Assay type: cell-based, mouse
Conditions: pre-treatment of living RAW cells with JPM-OEt (50 μM, 1 hr); labeling by qABP 8
Procedure: RAW cells were cultured in DMEM (GIBCO) supplemented with 10% fetal bovine serum (FBS; GIBCO), 100 units/mL penicillin and 100 μg/mL streptomycin (GIBCO). 4T1 cells (ATCC) were cultured in RPMI (GIBCO) supplemented with 10% fetal bovine serum (FBS; GIBCO), 100 units/mL penicillin and 100 μg/mL streptomycin (GIBCO). All cells were cultured in a 5% CO2 humidified incubator at 37° C. For intact cell labeling, cells were exposed to probe (500× in DMSO) in culture media and incubated for 2 hr at 37° C., unless stated otherwise. Where indicated the cells were preincubated for 1 hr with the inhibitor JPM-OEt (500× in DMSO) or exposed to mouse serum (1 μl probe stock solution in DMSO added to 9 μl serum) for 4 hr before addition to the cells. After labeling, the cells were washed with PBS and resuspended in hypotonic lysis buffer (50 mM PIPES pH 7.4, 10 mM KCl, 5 mM MgCl2, 2 mM EDTA, 4 mM DTT, and 1% NP-40) and put on ice for 15 min, centrifuged at 4° C. for 30 min and supernatants were collected, and protein concentration was determined using a BCA kit (pierce). […] Labeling intensities were quantified using Image J software. […] After 15 min on ice and centrifugation at 4° C. for 30 min the supernatants were collected, and protein concentration was determined using a BCA kit (pierce). […] 4×SDS-sample buffer was added and the protein was denatured for 3 min at 100° C. and analyzed as described above. […]

With JPM-OEt the “blocking of probe labeling” value was “more than 90%”.
